From paper PMC8426393, “Interactions of anti-COVID-19 drug candidates with hepatic transporters may cause liver toxicity and affect pharmacokinetics” (Scientific Reports, 2021)
pIC50: −log10 of the molar value. “Also recorded” adds a separate entry of the source. Where two headings read alike, the source gives them in different places.

Columns and labels:
ABCC4/MRP4 = target: T1, ABCC4/MRP4 (Homo sapiens, UniProt O15439); assay: MRP4 vesicular transport: ATP-dependent DHEAS uptake into inverted HEK-293 membrane vesicles; format: biochemical; conditions: for inhibition at […]: up to 50 µM drug, read-out: maximum inhibition of MRP4-dependent substrate transport; for ABCC4/MRP4 Type of effect: DHEAS 0.5 µM, 32 °C, HEK-293 vesicles
T1 construct: purchased Solvo Biotechnology (Budapest, Hungary); host or cells: HEK-293 cells
T1 sequence (O15439 1-1325): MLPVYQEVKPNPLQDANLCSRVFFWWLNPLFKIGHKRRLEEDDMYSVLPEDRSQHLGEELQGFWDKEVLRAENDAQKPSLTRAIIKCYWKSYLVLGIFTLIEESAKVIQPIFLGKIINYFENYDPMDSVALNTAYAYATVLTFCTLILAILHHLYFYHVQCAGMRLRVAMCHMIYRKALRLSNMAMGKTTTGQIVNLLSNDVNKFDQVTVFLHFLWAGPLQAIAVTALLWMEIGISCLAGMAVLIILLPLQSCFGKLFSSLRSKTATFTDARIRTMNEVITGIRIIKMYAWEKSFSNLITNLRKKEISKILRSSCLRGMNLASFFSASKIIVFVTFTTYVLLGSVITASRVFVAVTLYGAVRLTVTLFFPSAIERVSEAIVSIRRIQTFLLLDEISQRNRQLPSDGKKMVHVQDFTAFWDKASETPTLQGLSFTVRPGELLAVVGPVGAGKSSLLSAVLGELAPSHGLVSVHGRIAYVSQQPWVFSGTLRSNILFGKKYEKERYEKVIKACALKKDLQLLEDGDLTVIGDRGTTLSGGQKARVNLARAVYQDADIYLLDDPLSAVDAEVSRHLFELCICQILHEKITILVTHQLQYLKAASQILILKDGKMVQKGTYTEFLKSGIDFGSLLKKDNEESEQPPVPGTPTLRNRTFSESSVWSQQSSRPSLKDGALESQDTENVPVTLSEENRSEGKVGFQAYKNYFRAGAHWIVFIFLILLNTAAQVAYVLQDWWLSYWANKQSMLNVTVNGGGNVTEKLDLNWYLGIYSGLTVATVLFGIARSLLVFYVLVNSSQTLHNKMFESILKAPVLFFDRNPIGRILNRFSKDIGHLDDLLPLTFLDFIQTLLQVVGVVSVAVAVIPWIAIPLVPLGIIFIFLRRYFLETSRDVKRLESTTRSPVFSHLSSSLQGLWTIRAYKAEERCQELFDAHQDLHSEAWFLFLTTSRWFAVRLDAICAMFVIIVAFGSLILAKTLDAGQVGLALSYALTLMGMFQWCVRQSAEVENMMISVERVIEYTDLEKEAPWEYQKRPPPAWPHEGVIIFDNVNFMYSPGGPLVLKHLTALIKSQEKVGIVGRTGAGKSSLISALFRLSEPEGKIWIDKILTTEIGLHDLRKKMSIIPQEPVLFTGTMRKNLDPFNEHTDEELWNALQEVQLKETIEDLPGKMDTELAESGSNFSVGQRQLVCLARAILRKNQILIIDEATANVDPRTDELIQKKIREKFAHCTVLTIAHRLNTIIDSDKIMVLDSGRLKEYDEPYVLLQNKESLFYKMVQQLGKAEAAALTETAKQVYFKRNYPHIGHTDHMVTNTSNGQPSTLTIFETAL

ABCB11/BSEP = target: T2, ABCB11/BSEP (Homo sapiens, UniProt O95342); assay: BSEP vesicular transport: ATP- and glyburide-sensitive taurocholate uptake into inverted HEK-293 membrane vesicles; format: biochemical; conditions: for ABCB11/BSEP Type of effect: HEK-293 vesicles; for concentration at which BSEP inhibition is effective: taurocholate transport
T2 construct: purchased Solvo Biotechnology (Budapest, Hungary); host or cells: HEK-293 cells
T2 sequence (O95342 whole entry): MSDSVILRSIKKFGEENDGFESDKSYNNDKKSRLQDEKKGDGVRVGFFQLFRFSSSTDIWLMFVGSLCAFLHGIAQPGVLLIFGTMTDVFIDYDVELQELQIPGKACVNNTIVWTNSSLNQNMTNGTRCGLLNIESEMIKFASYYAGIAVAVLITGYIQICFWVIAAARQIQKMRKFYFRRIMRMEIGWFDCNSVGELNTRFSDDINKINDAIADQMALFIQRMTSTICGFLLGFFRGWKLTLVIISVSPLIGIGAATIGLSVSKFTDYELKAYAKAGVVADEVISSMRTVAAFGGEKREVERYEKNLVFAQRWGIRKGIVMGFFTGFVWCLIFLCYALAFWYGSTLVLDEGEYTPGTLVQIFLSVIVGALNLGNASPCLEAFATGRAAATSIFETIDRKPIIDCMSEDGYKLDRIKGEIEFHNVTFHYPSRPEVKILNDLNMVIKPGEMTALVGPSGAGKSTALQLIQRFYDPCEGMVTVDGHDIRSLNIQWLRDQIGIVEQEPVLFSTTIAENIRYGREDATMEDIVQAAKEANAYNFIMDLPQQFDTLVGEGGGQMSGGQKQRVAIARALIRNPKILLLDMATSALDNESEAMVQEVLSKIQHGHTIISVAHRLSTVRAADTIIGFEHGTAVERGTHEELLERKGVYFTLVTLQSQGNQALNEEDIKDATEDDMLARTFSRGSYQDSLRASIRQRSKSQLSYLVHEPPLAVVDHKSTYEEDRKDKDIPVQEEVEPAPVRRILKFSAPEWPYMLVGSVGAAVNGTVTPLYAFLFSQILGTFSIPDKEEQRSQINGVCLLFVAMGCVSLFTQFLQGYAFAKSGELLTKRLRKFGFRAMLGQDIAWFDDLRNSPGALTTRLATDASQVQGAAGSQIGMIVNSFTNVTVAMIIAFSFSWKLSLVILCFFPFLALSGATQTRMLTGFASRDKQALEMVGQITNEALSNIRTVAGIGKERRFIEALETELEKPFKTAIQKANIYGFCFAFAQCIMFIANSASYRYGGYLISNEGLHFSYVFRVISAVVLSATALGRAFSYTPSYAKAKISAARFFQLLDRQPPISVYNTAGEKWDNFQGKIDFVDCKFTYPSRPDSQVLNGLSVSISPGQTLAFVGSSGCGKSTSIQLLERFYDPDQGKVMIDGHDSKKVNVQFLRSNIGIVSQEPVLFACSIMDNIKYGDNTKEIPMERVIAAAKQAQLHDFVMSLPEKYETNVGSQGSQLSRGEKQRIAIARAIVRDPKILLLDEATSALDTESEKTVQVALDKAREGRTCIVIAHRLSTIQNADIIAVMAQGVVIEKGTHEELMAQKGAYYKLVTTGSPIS

NTCP/SLC10A1 = target: T3, NTCP/SLC10A1 (Homo sapiens, UniProt Q14973); assay: NTCP-dependent taurocholate uptake in NTCP-overexpressing HEK-293 cells; format: cell-based; conditions: for NTCP/SLC10A1 Type of effect: taurocholate 2 µM, 2 min, 37 °C, HEK-293 cells
T3 construct: expressed in transfected cells; host or cells: HEK-293 cells, lentiviral transduction
T3 sequence (Q14973 1-349): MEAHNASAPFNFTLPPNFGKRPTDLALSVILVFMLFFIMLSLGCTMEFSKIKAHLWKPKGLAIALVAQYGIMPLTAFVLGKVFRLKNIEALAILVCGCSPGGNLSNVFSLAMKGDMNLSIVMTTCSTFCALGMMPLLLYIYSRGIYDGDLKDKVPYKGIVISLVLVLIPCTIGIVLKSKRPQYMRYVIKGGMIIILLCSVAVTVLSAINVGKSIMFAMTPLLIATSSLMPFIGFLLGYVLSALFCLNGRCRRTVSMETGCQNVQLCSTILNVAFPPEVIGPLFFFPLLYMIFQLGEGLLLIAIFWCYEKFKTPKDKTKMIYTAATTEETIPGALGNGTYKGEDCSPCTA

OCT1/SLC22A1 = target: T4, OCT1/SLC22A1 (Homo sapiens, UniProt O15245); assay: OCT1-dependent metformin uptake in OCT1-overexpressing HEK-293 cells; format: cell-based; conditions: for OCT1/SLC22A1 Type of effect: metformin 10 µM, 5 min, 37 °C, HEK-293 cells
T4 construct: expressed in transfected cells; host or cells: HEK-293 cells, lentiviral transduction
T4 sequence (O15245 1-554): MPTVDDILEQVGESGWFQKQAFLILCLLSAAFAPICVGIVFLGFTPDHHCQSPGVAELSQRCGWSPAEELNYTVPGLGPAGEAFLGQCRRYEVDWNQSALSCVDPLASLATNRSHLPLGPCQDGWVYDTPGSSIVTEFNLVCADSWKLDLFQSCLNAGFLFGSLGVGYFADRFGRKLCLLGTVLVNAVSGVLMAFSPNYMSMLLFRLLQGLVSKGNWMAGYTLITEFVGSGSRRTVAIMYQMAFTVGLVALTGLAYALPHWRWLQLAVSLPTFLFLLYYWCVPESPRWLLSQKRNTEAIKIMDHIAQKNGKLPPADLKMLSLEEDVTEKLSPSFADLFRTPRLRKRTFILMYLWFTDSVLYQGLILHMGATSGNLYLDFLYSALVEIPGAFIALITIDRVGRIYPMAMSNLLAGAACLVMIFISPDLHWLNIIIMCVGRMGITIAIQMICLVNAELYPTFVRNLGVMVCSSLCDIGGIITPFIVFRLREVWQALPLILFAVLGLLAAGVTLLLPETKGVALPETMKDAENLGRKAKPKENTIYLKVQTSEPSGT

[1] = human, probe DHEAS (0.5 µM unlabeled plus 0.2 µCi radiolabeled)
[2] = taurocholate 2 µM, 37 °C, 10 min

Structure (SMILES)	inhibition at […] (ABCC4/MRP4; [1])	ABCB11/BSEP Type of effect (ABCB11/BSEP; [2])	NTCP/SLC10A1 Type of effect (NTCP/SLC10A1)	OCT1/SLC22A1 Type of effect (OCT1/SLC22A1)	ABCC4/MRP4 Type of effect (ABCC4/MRP4)	pIC50 (ABCB11/BSEP)	pIC50 (NTCP/SLC10A1)	pIC50 (OCT1/SLC22A1)	pIC50 (ABCB11/BSEP; approximate IC50, taurocholate 2 µM, 37 °C, 10 min)	concentration at which BSEP inhibition is effective (ABCB11/BSEP)	pIC50 (ABCC4/MRP4)	IC50 at […] (ABCC4/MRP4; [1])	inhibition at 10 min, 50 µM (ABCB11/BSEP; human, at 50 µM)	inhibition at 50 µM (NTCP/SLC10A1; HEK293, read-out: NTCP inhibition)	concentration of strong inhibitory effect on OCT1 (OCT1/SLC22A1; metformin uptake)
NC(=O)c1nc(F)c[nH]c1=O [FAV, favipiravir]	10 to 30%	did not modify BSEP-mediated TC transport	only minor inhibition	no significant inhibitory action	–	–	–	–	–	–	–	–	–	–	–
Cc1cccc(C)c1OCC(=O)N[C@@H](Cc1ccccc1)[C@@H](O)C[C@H](Cc1ccccc1)NC(=O)[C@H](C(C)C)N1CCCNC1=O [LOP, lopinavir]	10 to 30%	strongly inhibited TC transport at low concentrations and inh	inh	less inhibitory and inh	No effect	5.11	≤ 4.30	< 4.30	–	–	–	–	–	–	–
CCC(C)C1OC2(CCC1C)CC1CC(CC=C(C)C(OC3CC(OC)C(OC4CC(OC)C(O)C(C)O4)C(C)O3)C(C)C=CC=C3COC4C(O)C(C)=CC(C(=O)O1)C34O)O2 (stereo not drawn) [IVE, ivermectin]	–	inh	only minor inhibition	no significant inhibitory action; also recorded: no effect	No effect	–	–	–	≤ 4.52	above 20 µM	–	–	–	–	–
CCC(CC)COC(=O)[C@H](C)N[P@](=O)(OC[C@H]1O[C@@](C#N)(c2ccc3c(N)ncnn23)[C@H](O)[C@@H]1O)Oc1ccccc1 [REM, remdesivir]	–	inh	inh	strong inhibitory effect and inh	–	≤ 4.40	≤ 4.30	5.21	–	above 20 µM	5.54	~2.3 µM	40 to 50%	40 to 50%	below 10 µM
